Broadly, the melting point is the temperature of the solid-liquid transition.

Where only a bound is given, the exact number is not on record here.

In the case of `O=C1CSC=C2c3ccccc3C=CN12`, the melting point was 104 to 106 °C.

`O=C(C=Cc1ccc(O)c(O)c1)OCCc1ccccc1` gave a melting point of 126 to 128 °C.

`Cc1nnn(CC(I)=C(I)I)n1` showed a melting point of 111 °C.

`O=C(Nc1ccc(Cl)cc1C(=NO)c1ccccc1)C(F)Cl` (stereo not given) gave a melting point of 110 to 129 °C.

As for `C=C(c1ccc(Cl)cc1)c1ccc(NC(=O)c2cc(I)cc(I)c2O)cc1Cl`, the melting point fell in the range of 171 to 175 °C.

The compound `Nc1nc(NCC(c2ccccc2)c2ccc(F)cc2)c2ncn(C3OC(CO)C(O)C3O)c2n1` (stereo not given) gave a melting point of 127 to 130 °C.

Regarding `COC(=O)C1CCC(=O)c2c(-c3ccc(Cl)cc3)noc2C1` (stereo not given), the melting point lay in the range of 108 to 109 °C.

Compound `Cc1ccc(S(=O)(=O)c2ccc3[nH]c(C)c(CCNC(=O)OC(C)(C)C)c3c2)cc1` had a melting point of 134 to 138 °C.

Turning to `CC1OC(OC2C=C(Br)C(=O)C(C)O2)C=C(Br)C1=O` (stereo not given), the melting point is 125 °C.

`CCc1cc(N(C)C(=O)N2CCN(c3cc(OC)cc(OC)c3)CC2)c(OC)nc1C` registered a melting point of 78 to 79 °C.

`Cc1nccc(N)c1N`: the melting point is 170 to 171 °C.

`CC(C)(C)C(NC(=O)c1ccc(F)cc1)NC(=NC#N)Nc1cccnc1` (stereo not given) had a melting point of 195 to 196 °C.

In turn, `O=C(c1ccc(F)cc1)C1CCN(CCCn2c(=O)[nH]c3cc(C(F)(F)F)ccc32)CC1` yielded a melting point of 160 °C.

In turn, `CSc1nn2c(Cl)cc(C)nc2c1S(=O)(=O)c1ccc(C)cc1` gave a melting point of 197 to 198 °C.

As for `CC1OC(CN(C)C(=O)Nc2nnc(S(=O)(=O)N(C)C)s2)OC1C` (stereo not given), the melting point was 133 to 134 °C.

Compound `Cc1cnc2sc(SCc3ccccc3)nn2c1=O` returned a melting point of 130 to 132 °C.

`CN(C)C(=O)/C=C/c1ccc(C(=O)c2c(-c3ccc(O)cc3)sc3cc(O)ccc23)cc1` returned a melting point of 208 to 211 °C.

Compound `O=C1Nc2ccc(Cl)cc2Cc2sccc21` yielded a melting point of 264 to 266 °C.

`CN(C)CCCCCCCCCOc1ccc2oc(-c3ccccc3)cc(=O)c2c1`: the melting point lay within 52 to 53 °C.

As to `Sc1nnc(-c2cnccn2)s1`, the melting point was in the range of 224 to 228 °C.

In the case of `C=CCOc1cc(CNc2nc(C)nc(C)c2Cl)ccc1OCc1ccccc1`, the melting point lay within 94 to 96 °C.

Consider `Cc1ccc(C)c(Oc2oc(-c3ccc(Cl)cc3)nc2CC(=O)O)c1`, for which the melting point is 185 °C.

For the compound `CCC(NC(=O)c1ccccc1)C(=O)OC1CCCCC1` (stereo not given), the melting point fell in the range of 60 to 63 °C.

In turn, `CCOC(=O)c1cnn(-c2cc(Cl)cc(Cl)c2)c1S(C)(=O)=O` displayed a melting point of 179 to 181 °C.

On to `Nc1ccn2nc(N3CCCC3)nc2c1`, for which the melting point fell in the range of 221 to 225 °C.

`Cc1cc(N(C)C)cc(C)c1C1OC(C)(C)N=C1c1ccccc1` (stereo not given) yielded a melting point of 105 °C.

Consider `CCOc1cc(C(=O)c2c(-c3ccc(OC)cc3)sc3cc(OC)ccc23)cc(OCC)c1OCC`, for which the melting point lay within 108 to 110 °C.

With `COc1ccc(C=CC(=O)c2c(OC)cc(OC)cc2OC(=O)c2ccccc2)cc1`, the melting point is 134 °C.

`O=C(CCc1nc(-c2ccccn2)no1)NC1CCN(Cc2ccc(Cl)c(Cl)c2)CC1` came in with a melting point of 155 °C.

The compound `COc1ccc2c(CCC3CCN(Cc4ccccc4)CC3)noc2c1` displayed a melting point of 90.5 to 91.5 °C.

Compound `COc1cc(N)c(Cl)cc1C(=O)NC1CCN(CC2CCN(C(N)=O)CC2)CC1` came in with a melting point of 222 to 224 °C.

With `CCCn1ncc2c(=O)[nH]c(-c3cc(S(=O)(=O)Cl)ccc3OCC)nc21`, the melting point fell in the range of 177 to 180 °C.

Compound `CN(C)C=NS(=O)(=O)c1cc(CCNC(=O)C(F)(F)F)ccc1OCCOC(F)(F)F` showed a melting point of 111 to 114 °C.

In the case of `Cc1cnc2ccc(N)cc2n1`, the melting point lay in the range of 170 to 173 °C.

`O=S1(=O)C=CC(c2ccccc2)(c2ccccc2)CC1` had a melting point of 166 °C.

`Cc1cc(SCC#Cc2ccc(C(F)(F)F)cc2)ccc1OCC(=O)O` registered a melting point of 130 to 131 °C.

Turning to `CCOC(=O)/C=C/S(=O)(=O)c1ccc(C(C)(C)C)cc1`, the melting point lay within 88 to 91 °C.

For the compound `c1ccc2c(c1)ncc1cncn12`, the melting point was 175 to 179 °C.

Compound `CNCCc1cccc(N2C(=O)N(c3ccc(Cl)cc3Cl)Cc3cnc(Nc4ccccc4)nc32)c1` returned a melting point of 120 to 122 °C.

Turning to `CCC(=O)Nc1nnc(S)s1`, the melting point was 234 to 237 °C.

The compound `CCCCc1ccccc1C1C(C(=O)OCC)=C(CCC)Nc2[nH]ncc21` (stereo not given) registered a melting point of 175 °C.

Regarding `FCc1cc(-c2nnc3c4ccccc4c(OCc4nc[nH]n4)nn23)no1`, the melting point was in the range of 266 to 268 °C.

`CCOC(=NC(=O)c1ccccc1C(F)(F)F)c1ccccc1Cl` came in with a melting point of 64 to 65 °C.

`CCOC(=O)CC(=O)N(C)c1ccccc1[N+](=O)[O-]` gave a melting point of 54 to 55 °C.

For the compound `COc1ccc(C(=O)Cc2ccc3c(c2)OCO3)cc1OC`, the melting point was 110 to 111 °C.

`COc1ccc2cc(OCc3ccccc3)c(N)cc2c1` yielded a melting point of 149 to 151 °C.

For the compound `CCOC(=O)[C@H](CCc1ccccc1)NC(=O)C1(NC(=O)[C@@H](SC(C)=O)C2CCOCC2)CCCC1`, the melting point lay within 107 to 111 °C.

As to `C=CCOc1ncc(F)c(O)n1`, the melting point was 138 to 141 °C.

With `O=C(O)CCCc1cc2nc(Cl)ccc2n1S(=O)(=O)c1ccc2c(c1)CCO2`, the melting point is 225 °C.

Regarding `O=[N+]([O-])c1cc(-c2ccoc2)ccc1Nc1cccc(-n2cccc2)c1`, the melting point lay in the range of 129 to 131 °C.

`Cc1nc2c(N)nc3ccccc3c2n1CC1(O)CCCCC1` returned a melting point above 250 °C.

On to `CN(C)C(=S)Sc1sn(CCc2ccccc2)c(=O)c1Cl`, for which the melting point lay within 125 to 127 °C.

In turn, `CN(C1CCN(Cc2ccsc2)CC1)S(=O)(=O)c1ccc(Nc2nccc(Nc3ccc(F)cc3)n2)cc1` yielded a melting point of 173 to 174 °C.

Regarding `Cn1cnc(COc2nn3c(-c4cc(CO)on4)nnc3c3ccccc23)n1`, the melting point lay within 275 to 276 °C.

Take `CN1C(=O)c2ccccc2C2(CC(=O)NC2=O)C1=O` (stereo not given): the melting point fell in the range of 224 to 225 °C.

Turning to `O=[N+]([O-])c1ccc(-n2ccnn2)cc1`, the melting point was in the range of 205 to 206 °C.

In turn, `CCCNc1nc(-c2ccccc2)c(CCC(=O)OC)s1` displayed a melting point of 67 to 68 °C.

In turn, `CC1(C)C=C(C(=NC2CC2)NC#N)c2cc([N+](=O)[O-])ccc2O1` had a melting point of 206 to 207 °C.

With `CCOC(=O)c1cc2c(=O)n(C)c3ccccc3n2c1`, the melting point was 197 to 198 °C.

On to `CCN(CC1OCCO1)c1c([N+](=O)[O-])cc(S(C)(=O)=O)cc1[N+](=O)[O-]`, for which the melting point was 125 to 127 °C.

`COc1ccc(-c2cnn3cnnc3n2)cc1`: the melting point was in the range of 282 to 284 °C.

Turning to `CN(C(=O)N(C)c1ccc(CCl)cc1)c1ccc(CCl)cc1`, the melting point lay in the range of 72 to 73 °C.

For the compound `Cc1cc(C(=O)NC(C)CN(C)CC(C)NC(=O)c2cc(C)cc3nc4ccccc4nc23)c2nc3ccccc3nc2c1` (stereo not given), the melting point was in the range of 75 to 78 °C.

Compound `O=C1CC(c2ccccc2)(c2ccncc2)Oc2ccccc21` (stereo not given) returned a melting point of 123 to 130 °C.

In turn, `CCCc1cc(=O)on1C(=O)c1ccc(Cl)cc1Cl` displayed a melting point of 63 to 65.5 °C.
